Results reported in US20240300980A1, “HETEROCYCLIC COMPOUNDS AS KRAS INHIBITOR, AND PREPARATION THEREFOR AND USE THEREOF IN TREATMENT” (SHANGHAI KECHOW PHARMA, INC., priority 2021, published 2024).

What follows are compounds tested on AGS cells (KRAS^G12D) (assay: Detection of cell proliferation in vitro by MTT/MTS method (cell activity experiment)). Conditions: Homo sapiens, AGS, 72 h, AGS cells; MTT/MTS; 3 days of drug treatment; read-out: AGS IC50.
Format: cell-based
Outline: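 KRAS G12D AGS cells seeded at 1000 per well, compound added 24 h later, 0.5% final DMSO. Viability read after 3 days of treatment by MTT (solubilised in DMSO) or MTS, 4 h, absorbance 490 nm. IC50 from dose–response curves versus DMSO control.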

Row | SMILES | IC50
1 | CCc1cccc2cc(O)cc(N3CCc4c(nc(OC[C@@]56CCCN5C[C@H](F)C6)nc4N4C[C@H]5CC[C@@H](C4)N5)C3)c12 [Example 207, 4-(4-((1R,5S)-3,8-diazabicyclo[3.2.1]octan-3-yl)-2-(((2R,7aS)-2-fluorotetrahydro-1H-pyrrolizin-7a(5H)-yl)methoxy)-5,8-dihydropyrido[3,4-d]pyrimidin-7(6H)-yl)-5-ethylnaphthalen-2-ol] | 25 nM
2 | Oc1cc(N2CCc3c(nc(OC[C@@]45CCCN4C[C@H](F)C5)nc3N3C[C@H]4CC[C@@H](C3)N4)C2)c2c(Cl)c(F)ccc2c1 [Example 208, 4-(4-((1R,5S)-3,8-diazabicyclo[3.2.1]octan-3-yl)-2-(((2R,7aS)-2-fluorotetrahydro-1H-pyrrolizin-7a(5H)-yl)methoxy)-5,8-dihydropyrido[3,4-d]pyrimidin-7(6H)-yl)-5-chloro-6-fluoronaphthalen-2-ol] | 20 nM
3 | C#Cc1c(F)ccc2cc(O)cc(N3CCc4c(nc(OC[C@]56CCCN5[C@@H](COC(=O)N(C)C)CC6)nc4N4C[C@H]5CC[C@@H](C4)N5)C3)c12 [Example 209, ((3R,7aR)-7a-(((4-((1R,5S)-3,8-diazabicyclo[3.2.1]octan-3-yl)-7-(8-ethynyl-7-fluoro-3-hydroxynaphthalen-1-yl)-5,6,7,8-tetrahydropyrido[3,4-d]pyrimidin-2-yl)oxy)methyl)hexahydro-1H-pyrrolizin-3-yl)methyl dimethylcarbamate] | 35 nM
4 | CCc1c(F)ccc2cc(O)cc(N3CCc4c(nc(OC[C@]56CCCN5[C@@H](COC(=O)N(C)C)CC6)nc4N4C[C@H]5CC[C@@H](C4)N5)C3)c12 [Example 210, ((3R,7aR)-7a-(((4-((1R,5S)-3,8-diazabicyclo[3.2.1]octan-3-yl)-7-(8-ethyl-7-fluoro-3-hydroxynaphthalen-1-yl)-5,6,7,8-tetrahydropyrido[3,4-d]pyrimidin-2-yl)oxy)methyl)hexahydro-1H-pyrrolizin-3-yl)methyl dimethylcarbamate] | 65 nM
5 | C#Cc1c(F)ccc2cccc(N3CCc4c(nc(OC[C@@]56CCCN5C[C@H](COC(=O)N(C)C)C6)nc4N4C[C@H]5CC[C@@H](C4)N5)C3)c12 [Example 211, ((2R,7aS)-7a-(((4-((1R,5S)-3,8-diazabicyclo[3.2.1]octan-3-yl)-7-(8-ethynyl-7-fluoronaphthalen-1-yl)-5,6,7,8-tetrahydropyrido[3,4-d]pyrimidin-2-yl)oxy)methyl)hexahydro-1H-pyrrolizin-2-yl)methyl dimethylcarbamate] | 55 nM
6 | C#Cc1c(F)ccc2cc(O)cc(-c3ccc4c(N5CC(C(C)(C)N)C5)nc(OC[C@@]56CCCN5C[C@H](F)C6)nc4c3F)c12 [Example 212, 4-(4-(3-(2-aminopropan-2-yl)azetidin-1-yl)-8-fluoro-2-(((2R,7aS)-2-fluorotetrahydro-1H-pyrrolizin-7a(5H)-yl)methoxy)quinazolin-7-yl)-5-ethynyl-6-fluoronaphthalen-2-ol] | 419 nM
7 | C#Cc1c(F)ccc2cc(O)cc(-c3ccc4c(N5CC(C(C)N)C5)nc(OC[C@@]56CCCN5C[C@H](F)C6)nc4c3F)c12 (stereo partly drawn) [Example 213, 4-(4-(3-(1-aminoethyl)azetidin-1-yl)-8-fluoro-2-(((2R,7aS)-2-fluorotetrahydro-1H-pyrrolizin-7a(5H)-yl)methoxy)quinazolin-7-yl)-5-ethynyl-6-fluoronaphthalen-2-ol] | > 2500 nM
8 | C#Cc1c(F)ccc2cc(O)cc(-c3ccc4c(N5CC6CCC(N6)C5=O)nc(OC[C@@]56CCCN5C[C@H](F)C6)nc4c3F)c12 (stereo partly drawn) [Example 214, 3-(7-(8-ethynyl-7-fluoro-3-hydroxynaphthalen-1-yl)-8-fluoro-2-(((2R,7aS)-2-fluorotetrahydro-1H-pyrrolizin-7a(5H)-yl)methoxy)quinazolin-4-yl)-3,8-diazabicyclo[3.2.1]octan-2-one] | > 10000 nM
9 | C#Cc1c(F)ccc2cc(O)cc(-c3ccc4c(N5CC(C(N)=O)C5)nc(OC[C@@]56CCCN5C[C@H](F)C6)nc4c3F)c12 [Example 215, 1-(7-(8-ethynyl-7-fluoro-3-hydroxynaphthalen-1-yl)-8-fluoro-2-(((2R,7aS)-2-fluorotetrahydro-1H-pyrrolizin-7a(5H)-yl)methoxy)quinazolin-4-yl)azetidine-3-carboxamide] | > 2500 nM
10 | C#Cc1c(F)ccc2cc(O)cc(-c3ccc4c(N5CC6(CCN6)C5)nc(OC[C@@]56CCCN5C[C@H](F)C6)nc4c3F)c12 [Example 216, 5-ethynyl-6-fluoro-4-(8-fluoro-2-(((2R,7aS)-2-fluorotetrahydro-1H-pyrrolizin-7a(5H)-yl)methoxy)-4-(1,6-diazaspiro[3.3]heptan-6-yl)quinazolin-7-yl)naphthalen-2-ol] | 3480 nM
11 | C#Cc1c(F)ccc2cc(O)cc(-c3ccc4c(N5CC(C)(N)C5)nc(OC[C@@]56CCCN5C[C@H](F)C6)nc4c3F)c12 [Example 217, 4-(4-(3-amino-3-methylazetidin-1-yl)-8-fluoro-2-(((2R,7aS)-2-fluorotetrahydro-1H-pyrrolizin-7a(5H)-yl)methoxy)quinazolin-7-yl)-5-ethynyl-6-fluoronaphthalen-2-ol] | 835 nM
12 | C#Cc1c(F)ccc2cc(O)cc(-c3ccc4c(N5CC(C)(NC)C5)nc(OC[C@@]56CCCN5C[C@H](F)C6)nc4c3F)c12 [Example 218, 5-ethynyl-6-fluoro-4-(8-fluoro-2-(((2R,7aS)-2-fluorotetrahydro-1H-pyrrolizin-7a(5H)-yl)methoxy)-4-(3-methyl-3-(methylamino)azetidin-1-yl)quinazolin-7-yl)naphthalen-2-ol] | 980 nM
13 | C#Cc1c(F)ccc2cc(O)cc(-c3ncc4c(N(CCNC)C5CC5)nc(OC[C@@]56CCCN5C[C@H](F)C6)nc4c3F)c12 [Example 219, 4-(4-(cyclopropyl(2-(methyl-amino)ethyl)amino)-8-fluoro-2-(((2R,7aS)-2-fluorotetrahydro-1H-pyrrolizin-7a(5H)-yl)methoxy)pyrido[4,3-d]pyrimidin-7-yl)-5-ethynyl-6-fluoronaphthalen-2-ol] | > 2500 nM
14 | CC1CCc2cc(O)cc(-c3ncc4c(N5C[C@H]6CC[C@@H](C5)N6)nc(OC[C@@]56CCCN5C[C@H](F)C6)nc4c3F)c21 (stereo partly drawn) [Example 223, 7-(4-((1R,5S)-3,8-diazabicyclo[3.2.1]octan-3-yl)-8-fluoro-2-(((2R,7aS)-2-fluorotetrahydro-1H-pyrrolizin-7a(5H)-yl)methoxy)pyrido[4,3-d]pyrimidin-7-yl)-1-methyl-2,3-dihydro-1H-inden-5-ol] | 14 nM
15 | CC1CCCc2cc(O)cc(-c3ncc4c(N5C[C@H]6CC[C@@H](C5)N6)nc(OC[C@@]56CCCN5C[C@H](F)C6)nc4c3F)c21 (stereo partly drawn) [Example 224, 4-(4-((1R,5S)-3,8-diazabicyclo[3.2.1]octan-3-yl)-8-fluoro-2-(((2R,7aS)-2-fluorotetrahydro-1H-pyrrolizin-7a(5H)-yl)methoxy)pyrido[4,3-d]pyrimidin-7-yl)-5-methyl-5,6,7,8-tetrahydronaphthalen-2-ol] | 4.8 nM
16 | CCC1CCCc2cc(O)cc(-c3ncc4c(N5C[C@H]6CC[C@@H](C5)N6)nc(OC[C@@]56CCCN5C[C@H](F)C6)nc4c3F)c21 (stereo partly drawn) [Example 227, 4-(4-((1R,5S)-3,8-diazabicyclo[3.2.1]octan-3-yl)-8-fluoro-2-(((2R,7aS)-2-fluorotetrahydro-1H-pyrrolizin-7a(5H)-yl)methoxy)pyrido[4,3-d]pyrimidin-7-yl)-5-ethyl-5,6,7,8-tetrahydronaphthalen-2-ol] | 5 nM
17 | CCCC1CCc2cc(O)cc(-c3ncc4c(N5C[C@H]6CC[C@@H](C5)N6)nc(OC[C@@]56CCCN5C[C@H](F)C6)nc4c3F)c21 (stereo partly drawn) [Example 242, 7-(4-((1R,5S)-3,8-diazabicyclo[3.2.1]octan-3-yl)-8-fluoro-2-(((2R,7aS)-2-fluorotetrahydro-1H-pyrrolizin-7a(5H)-yl)methoxy)pyrido[4,3-d]pyrimidin-7-yl)-1-propyl-2,3-dihydro-1H-inden-5-ol] | 34 nM
18 | CCC1COc2cc(O)cc(-c3ncc4c(N5C[C@H]6CC[C@@H](C5)N6)nc(OC[C@@]56CCCN5C[C@H](F)C6)nc4c3F)c21 (stereo partly drawn) [Example 243, 4-(4-((1R,5S)-3,8-diazabicyclo[3.2.1]octan-3-yl)-8-fluoro-2-(((2R,7aS)-2-fluorotetrahydro-1H-pyrrolizin-7a(5H)-yl)methoxy)pyrido[4,3-d]pyrimidin-7-yl)-3-ethyl-2,3-dihydrobenzofuran-6-ol] | 18 nM
19 | CCc1coc2cc(O)cc(-c3ncc4c(N5C[C@H]6CC[C@@H](C5)N6)nc(OC[C@@]56CCCN5C[C@H](F)C6)nc4c3F)c12 [Example 244, 4-(4-((1R,5S)-3,8-diazabicyclo[3.2.1]octan-3-yl)-8-fluoro-2-(((2R,7aS)-2-fluorotetrahydro-1H-pyrrolizin-7a(5H)-yl)methoxy)pyrido[4,3-d]pyrimidin-7-yl)-3-ethylbenzofuran-6-ol] | 59 nM
20 | Oc1cc(-c2ncc3c(N4C[C@H]5CC[C@@H](C4)N5)nc(OC[C@@]45CCCN4C[C@H](F)C5)nc3c2F)c2c(c1)C1CC1C2 (stereo partly drawn) [Example 245, 5-(4-((1R,5S)-3,8-diazabicyclo[3.2.1]octan-3-yl)-8-fluoro-2-(((2R,7aS)-2-fluorotetrahydro-1H-pyrrolizin-7a(5H)-yl)methoxy)pyrido[4,3-d]pyrimidin-7-yl)-1,1a,6,6a-tetrahydrocyclopropa[a]inden-3-ol] | 25 nM

Same assay, conditions: Homo sapiens, AGS, 72 h, read-out: AGS IC50

Row | SMILES | IC50
21 | CCC1CCc2cc(O)cc(-c3ncc4c(N5C[C@H]6CC[C@@H](C5)N6)nc(OC[C@@]56CCCN5C[C@H](F)C6)nc4c3F)c21 (stereo partly drawn) [Example 220, 7-(4-((1R,5S)-3,8-diazabicyclo[3.2.1]octan-3-yl)-8-fluoro-2-(((2R,7aS)-2-fluorotetrahydro-1H-pyrrolizin-7a(5H)-yl)methoxy)pyrido[4,3-d]pyrimidin-7-yl)-1-ethyl-2,3-dihydro-1H-inden-5-ol] | 5 nM
